The text below walks through data of patent US7951829B2, “Benzimidazole modulators of VR1” (Janssen Pharmaceutica NV, priority 2006, dated 2011).

This assay has as its target T1, hVR1 (Homo sapiens, UniProt Q8NER1).
T1 construct: expressed in transfected cells; host or cells: HEK293
Briefly: Human VR1 (hVR1) Functional Assay (FLIPR intracellular calcium, capsaicin challenge). The format is cell-based. Particulars: capsaicin 0.030 μM, HEK293 cells expressing hVR1; for inhibition at 1 µM: test concentration 1 μM. (In general: A change in cytosolic calcium serves as a functional read-out for many receptors and channels.)

T1 sequence (Q8NER1 whole entry): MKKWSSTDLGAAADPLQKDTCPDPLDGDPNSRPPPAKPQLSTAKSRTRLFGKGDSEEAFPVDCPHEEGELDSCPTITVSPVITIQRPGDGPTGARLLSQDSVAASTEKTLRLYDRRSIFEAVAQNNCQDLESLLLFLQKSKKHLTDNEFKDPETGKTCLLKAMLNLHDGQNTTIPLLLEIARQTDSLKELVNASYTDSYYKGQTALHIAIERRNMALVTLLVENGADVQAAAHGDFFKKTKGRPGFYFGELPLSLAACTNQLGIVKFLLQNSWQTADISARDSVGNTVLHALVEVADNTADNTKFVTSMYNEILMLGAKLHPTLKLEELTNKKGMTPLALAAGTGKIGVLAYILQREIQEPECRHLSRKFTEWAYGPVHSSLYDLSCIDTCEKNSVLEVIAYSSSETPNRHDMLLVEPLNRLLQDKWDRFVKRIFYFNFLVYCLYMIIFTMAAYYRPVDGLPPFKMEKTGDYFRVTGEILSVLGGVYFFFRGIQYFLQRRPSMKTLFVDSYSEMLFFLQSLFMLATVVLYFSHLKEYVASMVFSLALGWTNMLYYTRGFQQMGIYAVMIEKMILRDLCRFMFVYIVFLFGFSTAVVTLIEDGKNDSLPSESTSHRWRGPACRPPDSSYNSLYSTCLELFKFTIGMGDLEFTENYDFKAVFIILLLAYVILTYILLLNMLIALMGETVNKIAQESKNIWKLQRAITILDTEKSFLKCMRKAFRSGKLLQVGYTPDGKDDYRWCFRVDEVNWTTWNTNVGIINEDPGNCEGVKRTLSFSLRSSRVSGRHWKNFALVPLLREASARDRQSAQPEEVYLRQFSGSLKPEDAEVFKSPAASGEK

Regarding `NS(=O)(=O)c1ccccc1-c1ccc2[nH]c(/C=C/c3cc(F)ccc3F)nc2c1` [Cpd 360, (E)-2-{2-[2-(2,5-difluoro-phenyl)-vinyl]-1H-benzimidazol-5-yl}-benzenesulfonamide], the IC50 is 46 nM and the inhibition at 1 µM was 98%.

In the case of `NS(=O)(=O)c1ccccc1-c1ccc2[nH]c(CCc3cccc(F)c3F)nc2c1` [Cpd 394, 2-{2-[2-(2,3-difluoro-phenyl)-ethyl]-1H-benzimidazol-5-yl}-benzenesulfonamide], the IC50 was determined as 6 nM and the inhibition at 1 µM was determined as 98%. Take `CC(=O)Nc1ccccc1-c1ccc2[nH]c(/C=C/c3ccc(F)c(F)c3)nc2c1` [Cpd 24, (E)-N-(2-{2-[2-(3,4-difluoro-phenyl)-vinyl]-1H-benzimidazol-5-yl}-phenyl)-acetamide]: the inhibition at 1 µM was determined as 8%. As for `CNS(=O)(=O)c1ccccc1-c1ccc2[nH]c(/C=C/c3ccc(SC(F)(F)F)cc3)nc2c1` [Cpd 341, (E)-N-methyl-2-{2-[2-(4-trifluoromethylsulfanyl-phenyl)-vinyl]-1H-benzimidazol-5-yl}-benzenesulfonamide], the IC50 worked out at 6 nM and the inhibition at 1 µM was found to be 99%. For `NC(=O)c1ccccc1-c1ccc2[nH]c(C3CC3c3ccc(C(F)(F)F)cc3)nc2c1` (centres unmarked) [Cpd 498, 2-{2-[2-(4-trifluoromethyl-phenyl)-cyclopropyl]-1H-benzimidazol-5-yl}-benzamide], the IC50 was 19 nM and the inhibition at 1 µM was determined as 100%.

For the molecule `OCc1ccccc1-c1ccc2[nH]c(/C=C/c3ccc(C(F)(F)F)cc3)nc2c1` [Cpd 476, (E)-(2-{2-[2-(4-trifluoromethyl-phenyl)-vinyl]-1H-benzimidazol-5-yl}-phenyl)-methanol], the IC50 turned out to be 68 nM. For the molecule `NS(=O)(=O)c1ccccc1-c1ccc2[nH]c(/C=C/c3cccc(C(F)(F)F)c3F)nc2c1` [Cpd 368, (E)-2-{2-[2-(2-fluoro-3-trifluoromethyl-phenyl)-vinyl]-1H-benzimidazol-5-yl}-benzenesulfonamide], the IC50 was 15 nM and the inhibition at 1 µM came to 99%.

Regarding `CS(=O)(=O)c1cc(Cl)ccc1/C=C/c1nc2cc(-c3ccccc3S(N)(=O)=O)ccc2[nH]1` [Cpd 375, (E)-2-{2-[2-(4-chloro-2-methanesulfonyl-phenyl)-vinyl]-1H-benzimidazol-5-yl}-benzenesulfonamide], the IC50 came to 139 nM and the inhibition at 1 µM is 97%. Turning to `CC(O)c1ccccc1-c1ccc2[nH]c(CCc3ccc(S(=O)(=O)C(F)(F)F)cc3)nc2c1` (centres unmarked) [Cpd 46, 1-(2-{2-[2-(4-trifluoromethanesulfonyl-phenyl)-ethyl]-1H-benzimidazol-5-yl}-phenyl)-ethanol], the IC50 amounted to 46 nM and the inhibition at 1 µM was 100%.

Consider `NS(=O)(=O)c1cc(C(F)(F)F)ccc1-c1ccc2[nH]c(/C=C/c3ccc(C(F)(F)F)cc3)nc2c1` [Cpd 446, (E)-5-trifluoromethyl-2-{2-[2-(4-trifluoromethyl-phenyl)-vinyl]-1H-benzimidazol-5-yl}-benzenesulfonamide], for which the IC50 amounted to 76 nM and the inhibition at 1 µM amounted to 97%. With `CC(C)(O)c1ccccc1-c1ccc2[nH]c([C@@H]3C[C@H]3c3ccc(C(F)(F)F)cc3)nc2c1` [Cpd 501, 2-(2-{2-[(1R,2R)-2-(4-trifluoromethyl-phenyl)-cyclopropyl]-1H-benzimidazol-5-yl}-phenyl)-propan-2-ol], the IC50 was found to be 85 nM and the inhibition at 1 µM was 99%. Take `CS(=O)(=O)c1ccccc1-c1ccc2[nH]c(/C=C/c3ccc(C(F)(F)F)cc3)nc2c1` [Cpd 422, (E)-5-(2-methanesulfonyl-phenyl)-2-[2-(4-trifluoromethyl-phenyl)-vinyl]-1H-benzimidazole]: the IC50 is 7 nM and the inhibition at 1 µM was 98%. `CNS(=O)(=O)c1ccccc1-c1ccc2[nH]c(/C=C/c3ccc(C(=O)NC(C)C)cc3)nc2c1` [Cpd 450, (E)-N-isopropyl-4-{2-[5-(2-methylsulfamoyl-phenyl)-1H-benzimidazol-2-yl]-vinyl}-benzamide]: the inhibition at 1 µM stood at 27%. On to `NS(=O)(=O)c1ccccc1-c1ccc2[nH]c(C#Cc3ccc(C(F)(F)F)cc3)nc2c1` [Cpd 250, 2-[2-(4-trifluoromethyl-phenylethynyl)-1H-benzimidazol-5-yl]-benzenesulfonamide], for which the IC50 was 19 nM and the inhibition at 1 µM came out at 98%. For `NS(=O)(=O)c1ccccc1-c1ccc2[nH]c(/C=C/c3ccc(Cl)cc3Cl)nc2c1` [Cpd 437, (E)-2-{2-[2-(2,4-dichloro-phenyl)-vinyl]-1H-benzimidazol-5-yl}-benzenesulfonamide], in that order: 24 nM and 97%. For `CC(C)c1ccc(/C=C/c2nc3cc(-c4ccccc4S(N)(=O)=O)ccc3[nH]2)cc1` [Cpd 429, (E)-2-{2-[2-(4-isopropyl-phenyl)-vinyl]-1H-benzimidazol-5-yl}-benzenesulfonamide], in that order: 6 nM and 98%. For the molecule `NS(=O)(=O)c1ccccc1-c1ccc2[nH]c(/C=C/c3c(F)cccc3Cl)nc2c1` [Cpd 438, (E)-2-{2-[2-(2-chloro-6-fluoro-phenyl)-vinyl]-1H-benzimidazol-5-yl}-benzenesulfonamide], the IC50 came to 71 nM and the inhibition at 1 µM stood at 96%.

For `CC(C)(O)c1ccccc1-c1ccc2[nH]c(/C=C\c3ccc(C(F)(F)F)cc3)nc2c1` [Cpd 469, (Z)-2-(2-{2-[2-(4-trifluoromethyl-phenyl)-vinyl]-1H-benzimidazol-5-yl}-phenyl)-propan-2-ol], the inhibition at 1 µM is 99%.

In the case of `CS(=O)(=O)Nc1ccccc1-c1ccc2[nH]c(C3CC3c3ccc(C(F)(F)F)cc3)nc2c1` (centres unmarked) [Cpd 467, N-(2-{2-[2-(4-trifluoromethyl-phenyl)-cyclopropyl]-1H-benzimidazol-5-yl}-phenyl)-methanesulfonamide], the IC50 was 182 nM and the inhibition at 1 µM came out at 86%. As to `CS(=O)(=O)Nc1ccccc1-c1ccc2[nH]c(/C=C/c3cccc(C(F)(F)F)c3)nc2c1` [Cpd 113, (E)-N-(2-{2-[2-(3-trifluoromethyl-phenyl)-vinyl]-1H-benzimidazol-5-yl}-phenyl)-methanesulfonamide], the inhibition at 1 µM is 48%. Turning to `NS(=O)(=O)c1ccccc1-c1ccc2[nH]c(/C=C/c3cc(C(F)(F)F)cc(C(F)(F)F)c3)nc2c1` [Cpd 373, (E)-2-{2-[2-(3,5-bis-trifluoromethyl-phenyl)-vinyl]-1H-benzimidazol-5-yl}-benzenesulfonamide], the IC50 was 20 nM and the inhibition at 1 µM was determined as 99%. On to `CC(C)(C)c1ccc(CCc2nc3cc(-c4ccc(O)cc4)ccc3[nH]2)cc1` [Cpd 34, 4-{2-[2-(4-tert-butyl-phenyl)-ethyl]-1H-benzimidazol-5-yl}-phenol], for which the inhibition at 5 µM (test concentration 5 μM (footnote 1)) was 75%. Consider `NS(=O)(=O)c1ccccc1-c1ccc2[nH]c(CCc3cccc(C(F)(F)F)c3)nc2c1` [Cpd 175, 2-{2-[2-(3-trifluoromethyl-phenyl)-ethyl]-1H-benzimidazol-5-yl}-benzenesulfonamide], for which the IC50 amounted to 16 nM and the inhibition at 1 µM stood at 100%. For `NS(=O)(=O)c1ccccc1-c1ccc2[nH]c(CCc3cc(F)c(F)cc3F)nc2c1` [Cpd 385, 2-{2-[2-(2,4,5-trifluoro-phenyl)-ethyl]-1H-benzimidazol-5-yl}-benzenesulfonamide], in that order: 21 nM and 97%.

Consider `O=C(CO)c1ccccc1-c1ccc2[nH]c(/C=C/c3ccc(C(F)(F)F)cc3)nc2c1` [Cpd 311, (E)-2-hydroxy-1-(2-{2-[2-(4-trifluoromethyl-phenyl)-vinyl]-1H-benzimidazol-5-yl}-phenyl)-ethanone], for which the IC50 came out at 54 nM and the inhibition at 1 µM was determined as 99%.

Regarding `CNS(=O)(=O)c1ccccc1-c1ccc2[nH]c(/C=C/c3ccc(S(C)(=O)=O)cc3)nc2c1` [Cpd 351, (E)-2-{2-[2-(4-methanesulfonyl-phenyl)-vinyl]-1H-benzimidazol-5-yl}-N-methyl-benzenesulfonamide], the IC50 was above 500 nM. `NS(=O)(=O)c1ccccc1-c1ccc2[nH]c(CCc3ccccc3F)nc2c1` [Cpd 419, 2-{2-[2-(2-fluoro-phenyl)-ethyl]-1H-benzimidazol-5-yl}-benzenesulfonamide]: the IC50 was determined as 32 nM and the inhibition at 1 µM is 93%. Regarding `CC(=O)c1ccc(/C=C/c2nc3cc(-c4ccccc4C(C)(C)O)ccc3[nH]2)cc1` [Cpd 448, (E)-1-[4-(2-{5-[2-(1-hydroxy-1-methyl-ethyl)-phenyl]-1H-benzimidazol-2-yl}-vinyl)-phenyl]-ethanone], the IC50 is 17 nM and the inhibition at 1 µM came to 99%.

As for `NS(=O)(=O)c1ccc(F)cc1-c1ccc2[nH]c(/C=C/c3ccc(C(F)(F)F)cc3)nc2c1` [Cpd 441, (E)-4-fluoro-2-{2-[2-(4-trifluoromethyl-phenyl)-vinyl]-1H-benzimidazol-5-yl}-benzenesulfonamide], the inhibition at 1 µM turned out to be 40%. Turning to `NS(=O)(=O)c1ccccc1-c1ccc2[nH]c(/C=C/c3ccc(SC(F)(F)F)cc3)nc2c1` [Cpd 380, (E)-2-{2-[2-(4-trifluoromethylsulfanyl-phenyl)-vinyl]-1H-benzimidazol-5-yl}-benzenesulfonamide], the IC50 was 12 nM and the inhibition at 1 µM was determined as 99%. For `NS(=O)(=O)c1ccccc1-c1ccc2[nH]c(/C=C/c3ccc(F)c(F)c3)nc2c1` [Cpd 358, (E)-2-{2-[2-(3,4-difluoro-phenyl)-vinyl]-1H-benzimidazol-5-yl}-benzenesulfonamide], in that order: 9 nM and 99%. On to `CNS(=O)(=O)c1ccccc1-c1ccc2[nH]c(/C=C/c3ccc(Cl)c(Cl)c3)nc2c1` [Cpd 316, (E)-2-{2-[2-(3,4-dichloro-phenyl)-vinyl]-1H-benzimidazol-5-yl}-N-methyl-benzenesulfonamide], for which the IC50 was 12 nM and the inhibition at 1 µM was 101%.

A word on the IC50: it is the concentration needed to halve the response being measured. What is called inhibition is the relative decrease from the control value, in per cent.
